The NIST ThermoML archive (doi:10.1021/je2002539)
± gives the expanded uncertainty stated by the source.

Experiment: refractive index (Na D-line) (dimensionless)
Details: 298.15 K; 101.33 kPa; Liquid; Standard Abbe refractometry

Row | refractive index | Structure (SMILES)
1 | 1.43436 ± 0.00033 | CCCCCCCCCCO [decan-1-ol]
2 | 1.44058 ± 0.00033 | CCCCCCCCCCCCO [dodecan-1-ol]
3 | 1.4158 ± 0.00033 | CCCCCCO [hexan-1-ol]
4 | 1.43084 ± 0.00033 | CCCCCCCCCO [nonan-1-ol]
5 | 1.42695 ± 0.00033 | CCCCCCCCO [octan-1-ol]
6 | 1.40703 ± 0.00033 | CCCCCO [pentan-1-ol]
7 | 1.38305 ± 0.00033 | CCCO [propan-1-ol]
8 | 1.33248 ± 0.00031 | O [water]
